ChEMBL document CHEMBL1201862, “PubChem BioAssay data set” (2004)
Active and inactive are the calls of the source.

Assays:
Steroidogenic factor 1 = Steroidogenic factor 1 (Homo sapiens, UniProt Q13285); experiment: Counterscreen for inverse agonists of the liver receptor homolog-1 (LRH-1; NR5A2): Luminescence-based cell-based high throughput dose response assay to identify inverse agonists of the Steroidogenic Factor 1 Nuclear Receptor (SF1; NR5A1).; type: functional
[1] = biological target: Nuclear receptor subfamily 5 group A member 2 (Homo sapiens, UniProt O00482); type: functional, cell-based;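 note: HEK293T cells transfected with LRH-1 and a StAR promoter luciferase reporter; potency for inhibitors that lower LRH-1 driven reporter light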
[2] = nonselective StAR promoter luciferase inhibitors – cell-based, luminescence, luciferase reporter, counter-screen for LRH-1 inverse agonist project, dose response (AID 651969); type: functional
[3] = viability loss in HEK293T cells – cell-based, cherry-picks, cytotoxicity control for HIV Vif inhibitor project, dose response (AID 652208); type: functional
[4] = biological target: T1, RNA-binding protein pos-1 (Caenorhabditis elegans, UniProt G5EF15); experiment: disruptors of C. elegans POS-1 RNA interaction – biochemical, fluorescence polarization, dose response (AID 1964);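 note: purified POS-1 fused to maltose binding protein made in E. coli; potency of compounds blocking POS-1 binding to fluorescent RNA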
T1 sequence (G5EF15 whole entry): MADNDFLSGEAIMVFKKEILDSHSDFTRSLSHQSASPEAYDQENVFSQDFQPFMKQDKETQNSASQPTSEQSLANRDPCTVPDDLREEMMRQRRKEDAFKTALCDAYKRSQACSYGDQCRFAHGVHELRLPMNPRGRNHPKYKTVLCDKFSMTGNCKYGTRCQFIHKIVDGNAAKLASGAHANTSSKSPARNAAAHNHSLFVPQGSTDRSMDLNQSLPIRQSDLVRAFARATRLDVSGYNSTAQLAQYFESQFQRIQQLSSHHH

[5] = biological target: T2, Zinc finger protein mex-5 (Caenorhabditis elegans, UniProt Q9XUB2); experiment: potency of MEX-5 RNA-binding blockers – biochemical, C. elegans, fluorescence polarization, dose response (AID 1960)
T2 sequence (Q9XUB2 whole entry): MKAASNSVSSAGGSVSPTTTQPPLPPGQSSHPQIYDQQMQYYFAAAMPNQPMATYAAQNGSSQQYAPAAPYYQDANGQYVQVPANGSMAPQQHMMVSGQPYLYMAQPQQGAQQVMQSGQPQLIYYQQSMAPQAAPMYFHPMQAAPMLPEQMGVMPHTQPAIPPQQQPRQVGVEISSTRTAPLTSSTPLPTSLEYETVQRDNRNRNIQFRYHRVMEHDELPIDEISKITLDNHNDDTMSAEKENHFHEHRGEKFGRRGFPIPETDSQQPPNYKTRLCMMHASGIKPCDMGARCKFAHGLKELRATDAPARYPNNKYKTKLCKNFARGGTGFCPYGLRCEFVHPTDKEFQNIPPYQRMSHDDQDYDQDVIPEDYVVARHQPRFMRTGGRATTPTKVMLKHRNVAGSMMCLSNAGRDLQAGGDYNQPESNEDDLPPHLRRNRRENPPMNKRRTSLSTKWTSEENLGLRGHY

[6] = bead-based luminescence quenchers, dual-tagged ARNT – biochemical, AlphaScreen, cherry-pick, artefact control for ARNT-TACC3 interaction inhibitor project, dose response (AID 651705); type: functional;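 note: AlphaScreen bead proximity signal that flags compounds interfering with the detection technology; potency reflects signal decrease which marks the compound as an assay artifact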
[7] = biological target: T3, Hepatocyte nuclear factor 4-alpha (Homo sapiens, UniProt P41235); type: functional, cell-based;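 note: biochemical luminescence-based dose-response counterscreen measuring inhibition of HNF4 dimerization, run alongside a screen for blockers of ABHD5–perilipin-5 interaction; split luciferase complementation of HNF4 fusion proteins in cell lysate measuring dimerization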
T3 sequence (P41235 whole entry): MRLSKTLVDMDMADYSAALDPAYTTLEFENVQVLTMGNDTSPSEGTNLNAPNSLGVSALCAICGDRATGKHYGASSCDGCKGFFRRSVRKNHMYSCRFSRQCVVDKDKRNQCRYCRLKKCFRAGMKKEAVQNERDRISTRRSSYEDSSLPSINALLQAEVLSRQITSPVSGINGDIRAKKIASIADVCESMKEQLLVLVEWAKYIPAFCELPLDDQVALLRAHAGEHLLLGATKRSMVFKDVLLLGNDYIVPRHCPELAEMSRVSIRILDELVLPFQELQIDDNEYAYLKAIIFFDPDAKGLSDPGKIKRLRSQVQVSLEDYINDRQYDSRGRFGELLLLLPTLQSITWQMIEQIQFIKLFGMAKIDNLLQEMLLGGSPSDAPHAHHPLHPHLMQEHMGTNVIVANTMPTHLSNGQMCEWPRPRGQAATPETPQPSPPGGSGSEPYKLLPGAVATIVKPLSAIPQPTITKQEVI

[8] = biological target: T4, Corticotropin-releasing factor receptor 2/Corticotropin-releasing factor-binding protein (Homo sapiens, UniProt P24387+Q13324); experiment: activators of CRF receptor 2 with binding protein – uHTS hits, confirmation (AID 602473); type: functional; details: read-out: EC50_Mean
T4 sequence (Q13324 whole entry): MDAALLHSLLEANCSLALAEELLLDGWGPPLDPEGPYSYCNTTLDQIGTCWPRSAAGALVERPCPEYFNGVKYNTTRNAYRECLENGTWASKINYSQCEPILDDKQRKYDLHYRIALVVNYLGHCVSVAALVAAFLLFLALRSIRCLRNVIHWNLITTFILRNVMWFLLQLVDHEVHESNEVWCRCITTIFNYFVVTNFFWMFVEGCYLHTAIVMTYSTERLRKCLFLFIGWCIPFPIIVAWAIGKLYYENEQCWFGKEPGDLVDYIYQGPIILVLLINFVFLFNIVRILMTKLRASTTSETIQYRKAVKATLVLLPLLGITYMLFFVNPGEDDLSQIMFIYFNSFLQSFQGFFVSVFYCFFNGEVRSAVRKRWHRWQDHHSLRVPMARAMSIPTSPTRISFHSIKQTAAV
T4 sequence (P24387 whole entry): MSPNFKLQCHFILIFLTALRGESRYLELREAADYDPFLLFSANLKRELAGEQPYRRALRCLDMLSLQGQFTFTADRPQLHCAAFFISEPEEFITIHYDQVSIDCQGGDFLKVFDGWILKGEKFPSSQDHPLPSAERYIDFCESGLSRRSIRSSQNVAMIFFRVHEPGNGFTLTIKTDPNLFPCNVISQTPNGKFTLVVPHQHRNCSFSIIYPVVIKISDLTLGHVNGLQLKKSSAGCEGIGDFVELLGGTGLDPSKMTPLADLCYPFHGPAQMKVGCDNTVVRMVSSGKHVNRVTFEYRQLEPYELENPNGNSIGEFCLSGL

[9] = blockers of CRF-binding protein–CRF-R2 complex – cell-based, uHTS hits, 384-well, dose response (AID 651639); type: functional, Homo sapiens; details: read-out: IC50_Mean
[10] = biological target: T4, Corticotropin-releasing factor receptor 2/Corticotropin-releasing factor-binding protein; experiment: Dose Response confirmation of uHTS hits for small molecule antagonists of the CRF-binding protein and CRF-R2 receptor complex.; type: functional; details: read-out: IC50_Mean
[11] = Counterscreen for inhibitors of Trypanosoma brucei methionyl tRNA synthetase (MetRS): Luminescence-based cell-based high throughput dose response assay to identify compounds that are cytotoxic to Jurkat human T lymphocyte cells.; type: functional
[12] = biological target: T5, Rac GTPase-activating protein 1 (Homo sapiens, UniProt Q9H0H5); experiment: blockers of MgcRacGAP-driven Rac1 GTP hydrolysis – biochemical, ADP Hunter fluorescence, primary and confirmatory, confirmation (AID 624330); type: functional
T5 sequence (Q9H0H5 whole entry): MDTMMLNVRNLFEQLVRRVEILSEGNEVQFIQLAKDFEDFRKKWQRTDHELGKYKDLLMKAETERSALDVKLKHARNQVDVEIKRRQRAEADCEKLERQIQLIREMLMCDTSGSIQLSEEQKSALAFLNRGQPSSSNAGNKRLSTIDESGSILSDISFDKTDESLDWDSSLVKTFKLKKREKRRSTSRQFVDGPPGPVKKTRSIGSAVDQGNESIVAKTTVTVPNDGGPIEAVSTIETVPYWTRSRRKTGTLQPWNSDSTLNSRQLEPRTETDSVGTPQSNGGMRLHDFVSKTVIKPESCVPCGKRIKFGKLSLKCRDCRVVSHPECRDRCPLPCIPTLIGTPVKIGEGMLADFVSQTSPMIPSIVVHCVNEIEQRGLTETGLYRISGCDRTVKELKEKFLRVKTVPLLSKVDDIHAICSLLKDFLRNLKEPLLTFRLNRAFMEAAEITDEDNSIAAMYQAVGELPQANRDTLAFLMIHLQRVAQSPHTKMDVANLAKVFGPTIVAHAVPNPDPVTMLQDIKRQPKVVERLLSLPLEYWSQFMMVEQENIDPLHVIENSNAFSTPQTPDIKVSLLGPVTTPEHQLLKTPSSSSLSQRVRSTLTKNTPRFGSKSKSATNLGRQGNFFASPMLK

[13] = viability loss in HeLa cells – cytotoxicity control for MgcRacGAP inhibitor project, dose response (AID 624300); type: functional
[14] = fluconazole-exposed Candida albicans growth modulators – fluorescence, retest, confirmation (AID 2467); type: functional, cell-based
Cytochrome P450 2C9 = Cytochrome P450 2C9 (Homo sapiens, UniProt P11712)
[15] = viability of HCT116 lacking mutant beta-catenin – cell-based, human colon tumor, dose response (AID 1045); type: functional;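 note: HCT116 colon tumor cells with beta catenin knocked out; cells exposed to compound for 60 hours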
Cytochrome P450 3A4 = Cytochrome P450 3A4 (Homo sapiens, UniProt P08684);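 note: CYP3A4 tested as one member of a cytochrome P450 panel screen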
[16] = NIH-3T3 fibroblast cytotoxicity, dose response, cytotoxicity control, cell-based, fluorescence, Alamar Blue, secondary assay (AID 2327); type: functional;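 note: NIH-3T3 mouse fibroblasts cultured with fluconazole at 8 µg/mL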
[17] = viability of PTEN-deleted HCT116 cells – cell-based, HCT116 PTEN knockout, dose response (AID 1047); type: functional;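 note: HCT116 colon tumor cells with PTEN knocked out; cells exposed to compound for 60 hours before readout; potency for loss of cell viability measured by luminescence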
[18] = biological target: T6, Long-chain-fatty-acid--AMP ligase FadD28 (Mycobacterium tuberculosis, UniProt P9WQ59); experiment: Fluorescence polarization aasay to screen for inhibitors that compete for the binding of FadD28 to a bisubstrate Measured in Biochemical System Using Plate Reader - 2147-01_Inhibitor_Dose_CherryPick_Activity.; type: functional, Mycobacterium tuberculosis H37Rv
T6 sequence (P9WQ59 whole entry): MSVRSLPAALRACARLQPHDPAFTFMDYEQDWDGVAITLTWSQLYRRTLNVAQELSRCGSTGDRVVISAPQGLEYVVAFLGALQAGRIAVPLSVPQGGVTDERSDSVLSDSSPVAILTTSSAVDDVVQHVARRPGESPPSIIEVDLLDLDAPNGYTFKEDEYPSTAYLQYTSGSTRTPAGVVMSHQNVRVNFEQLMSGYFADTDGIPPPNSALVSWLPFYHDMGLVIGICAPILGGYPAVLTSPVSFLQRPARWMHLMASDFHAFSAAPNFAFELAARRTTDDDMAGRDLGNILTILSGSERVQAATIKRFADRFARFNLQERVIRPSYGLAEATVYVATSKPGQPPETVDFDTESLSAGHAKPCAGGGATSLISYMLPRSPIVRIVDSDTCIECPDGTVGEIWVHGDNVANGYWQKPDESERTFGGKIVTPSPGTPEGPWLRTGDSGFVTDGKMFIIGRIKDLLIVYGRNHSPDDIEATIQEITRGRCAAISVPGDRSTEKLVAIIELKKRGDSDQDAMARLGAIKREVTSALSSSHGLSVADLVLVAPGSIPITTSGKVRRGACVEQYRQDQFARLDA

[19] = toxicity toward HepG2 liver cells – cell-based, plate reader, cherry-pick, antagonist series, cytotoxicity control, dose response (AID 743416); type: functional
[20] = A549 cell cytotoxicity, dose response, cytotoxicity control, plate reader, cherry-pick, antagonist series (AID 743412); type: functional, cell-based
[21] = blockade of melanocortin 4 receptor signaling – cell-based, plate reader, cherry pick, counter-screen for LGR2 antagonist project, dose response (AID 743444); type: functional;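 note: transfected HEK 293 cells stimulated with alpha-MSH peptide; potency of inhibitors of the alpha-MSH evoked signal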
[22] = viability loss in HEK293 cells – cell-based, plate reader, cherry-picked samples, cytotoxicity control, dose response (AID 743446); type: functional
[23] = blockers of bursicon-stimulated LGR2 cAMP reporter – cell-based, HEK293, CRE-luciferase reporter, cherry pick, set 2, dose response (AID 743343); type: functional;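 note: transfected cells were stimulated with diluted bursicon conditioned medium after compound addition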

Chain of Steroidogenic factor 1 (Q13285 whole entry): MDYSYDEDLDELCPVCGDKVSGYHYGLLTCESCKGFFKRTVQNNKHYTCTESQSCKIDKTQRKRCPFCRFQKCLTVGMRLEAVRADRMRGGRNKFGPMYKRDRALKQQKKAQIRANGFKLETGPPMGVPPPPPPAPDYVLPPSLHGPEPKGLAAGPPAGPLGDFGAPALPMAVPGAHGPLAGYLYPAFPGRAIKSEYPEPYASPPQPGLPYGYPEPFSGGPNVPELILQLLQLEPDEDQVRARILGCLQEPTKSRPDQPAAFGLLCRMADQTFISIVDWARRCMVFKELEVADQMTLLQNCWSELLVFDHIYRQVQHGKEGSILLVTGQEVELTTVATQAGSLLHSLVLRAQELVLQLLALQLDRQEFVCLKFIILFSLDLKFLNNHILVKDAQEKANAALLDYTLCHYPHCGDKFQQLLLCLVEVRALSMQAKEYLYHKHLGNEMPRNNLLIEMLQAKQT
Chain of Nuclear receptor subfamily 5 group A member 2 (O00482 whole entry): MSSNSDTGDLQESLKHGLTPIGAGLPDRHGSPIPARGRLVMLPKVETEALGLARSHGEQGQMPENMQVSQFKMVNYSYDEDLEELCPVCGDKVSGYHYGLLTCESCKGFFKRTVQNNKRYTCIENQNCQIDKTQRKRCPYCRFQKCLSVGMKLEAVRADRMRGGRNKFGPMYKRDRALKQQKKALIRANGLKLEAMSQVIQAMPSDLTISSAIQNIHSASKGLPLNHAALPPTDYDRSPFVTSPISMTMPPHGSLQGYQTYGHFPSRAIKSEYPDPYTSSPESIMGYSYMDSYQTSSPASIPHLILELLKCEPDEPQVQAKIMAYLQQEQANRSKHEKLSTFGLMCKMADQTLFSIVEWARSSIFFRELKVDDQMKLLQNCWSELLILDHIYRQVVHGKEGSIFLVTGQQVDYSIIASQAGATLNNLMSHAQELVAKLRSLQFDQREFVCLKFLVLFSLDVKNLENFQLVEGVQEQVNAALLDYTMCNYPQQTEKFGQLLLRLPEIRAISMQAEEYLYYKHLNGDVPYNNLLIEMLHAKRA
Chain of Cytochrome P450 2C9 (P11712 whole entry): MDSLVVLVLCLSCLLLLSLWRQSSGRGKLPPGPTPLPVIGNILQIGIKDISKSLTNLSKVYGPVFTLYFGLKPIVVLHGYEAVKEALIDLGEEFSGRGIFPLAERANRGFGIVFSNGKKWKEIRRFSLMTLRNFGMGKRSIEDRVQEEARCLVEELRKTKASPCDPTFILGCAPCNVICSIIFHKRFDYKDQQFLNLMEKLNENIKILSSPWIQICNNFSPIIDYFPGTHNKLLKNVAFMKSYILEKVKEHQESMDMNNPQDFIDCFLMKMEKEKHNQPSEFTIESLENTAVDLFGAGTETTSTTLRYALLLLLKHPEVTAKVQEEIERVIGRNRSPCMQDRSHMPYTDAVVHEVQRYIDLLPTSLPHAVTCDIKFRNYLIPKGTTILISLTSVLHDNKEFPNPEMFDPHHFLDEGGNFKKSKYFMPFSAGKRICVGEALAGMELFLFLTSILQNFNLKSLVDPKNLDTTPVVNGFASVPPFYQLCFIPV
Chain of Cytochrome P450 3A4 (P08684 whole entry): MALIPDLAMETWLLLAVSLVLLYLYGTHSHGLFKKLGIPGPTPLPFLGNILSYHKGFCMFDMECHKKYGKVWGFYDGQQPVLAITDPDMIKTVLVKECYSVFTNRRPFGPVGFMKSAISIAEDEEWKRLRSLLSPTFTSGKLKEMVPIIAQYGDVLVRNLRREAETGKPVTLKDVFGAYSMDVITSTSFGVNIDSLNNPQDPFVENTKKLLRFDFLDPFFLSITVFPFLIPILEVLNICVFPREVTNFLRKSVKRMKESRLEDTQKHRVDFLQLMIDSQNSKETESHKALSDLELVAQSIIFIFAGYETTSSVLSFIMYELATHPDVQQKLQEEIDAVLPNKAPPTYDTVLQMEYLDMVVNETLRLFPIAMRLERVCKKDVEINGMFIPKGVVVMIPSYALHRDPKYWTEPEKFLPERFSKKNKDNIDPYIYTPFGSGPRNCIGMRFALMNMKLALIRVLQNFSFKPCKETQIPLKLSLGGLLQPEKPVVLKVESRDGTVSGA

Cc1cc([N+](=O)[O-])ccc1NC(=O)CSc1nnc(C)n1C
IC50 (Steroidogenic factor 1): 11.9 µM (inactive)
IC50 [1]: 11.9 µM (inactive)
IC50 [2]: 35.8 µM (inactive)

COc1ccc(C=C2CS(=O)(=O)CC(=Cc3ccc(OC)cc3)C2=O)cc1
AC50 [3]: 4.33 µM (active)

O=C(NNc1ccccn1)C(=O)NNS(=O)(=O)c1ccc(F)cc1
EC50 [4]: > 300 µM (not active)
EC50 [5]: > 300 µM (inconclusive)
AC50 [6]: 122 µM (active)

Cc1cccc(C)c1NC(=O)C(c1ccc(C(F)(F)F)cc1)n1c(=O)c(-c2ccco2)nc2ccccc21 (centres undefined)
IC50 [7]: 2.56 µM (active)

COC(=O)c1sc(-c2ccc(C(C)(C)C)cc2)cc1NC(=O)COCC(=O)O
EC50 [8]: > 53 µM (inactive)
IC50 [9]: > 20 µM (inactive)
IC50 [10]: 11 µM (active)

O=C(OCC(=O)c1c[nH]c2ccccc12)c1ccc(OC(F)F)cc1
IC50 [11]: 83.3 µM (inactive)

O=C(Nc1ccccc1C(=O)Nc1nccs1)c1ccccc1
IC50 (Steroidogenic factor 1): 9.51 µM (active)
IC50 [1]: 9.83 µM (active)
IC50 [2]: 26.4 µM (inactive)

COc1cc(/C=N/Nc2nn3cnnc3c3ccccc23)ccc1O
IC50 [12]: 64.2 µM (active)
CC50 [13]: 100 µM (active)

Cn1c(N/N=C/c2c[nH]c3ccccc23)nc2ccccc21
EC50 [14]: > 38 µM (not active)
AC50 (Cytochrome P450 2C9): 28.2 µM (inconclusive)
EC50 [15]: 2.81 µM (active)
AC50 (Cytochrome P450 3A4): 20 µM (inconclusive)
IC50 [12]: 44.4 µM (active)
CC50 [13]: 100 µM (active)
EC50 [16]: > 150 µM (inactive)
EC50 [17]: 2.96 µM (active)
AC50 [18]: 52.1 µM (active)

COc1ccc(N2/C(=C/C(C)=O)NC(=O)c3c(C)cc(C)nc32)cc1
IC50 (Steroidogenic factor 1): 5.42 µM (active)
IC50 [1]: 8.47 µM (active)
IC50 [2]: 35.9 µM (inactive)

CC(C)(C)OC(=O)N1CCC(c2cc(O)n3ncc(C(=O)NC4CCCC4)c3n2)CC1
EC50 [8]: > 53 µM (inactive)
IC50 [9]: 9.87 µM (active)
IC50 [10]: 6.5 µM (active)

C[C@H](CO)N1C[C@H](C)[C@H](CN(C)Cc2ccc(C(F)(F)F)cc2)Oc2ccc(NC(=O)Nc3ccccc3)cc2C1=O
AC50 [19]: > 47 µM (inactive)
AC50 [20]: 7.64 µM (active)
AC50 [21]: 20.2 µM (active)
AC50 [22]: > 47 µM (inactive)
AC50 [23]: 27.4 µM (active)

CCOC(=O)N1CCN(c2c(NCc3ccc(Cl)cc3)c(=O)c2=O)CC1
AC50 [3]: > 52 µM (inactive)

COc1ccc(OCc2cn(CC(=O)c3ccc(O)cc3)nn2)cc1
IC50 [7]: 6 µM (active)
